Tests used:
β-amyloid peptide(1-40) = biological target: T1, β-amyloid peptide(1-40) (Homo sapiens, UniProt P05067); details: cited from earlier work
T1 construct: when incubated with β-amyloid peptide(1-40); (Park, Kim, Son, & Yang, 2009)

[1] = cited from earlier work
neurons = details: cited from earlier work
[2] = 280-310 milliosmoles per liter, pH 6-8, animal preparation; cited from earlier work
[3] = biological target: T2, amyloid β peptide(1-40) aggregates (Homo sapiens, UniProt P05067); assay: Citrate treatment of amyloid β peptide(1-40) aggregates (thioflavin T fluorescence microscopy); type: biochemical; details: 48 hours, 37° C.
T2 construct: amyloid β peptide(1-40) (Abcam, Cambridge, United Kingdom); purchased Abcam, Cambridge, United Kingdom
Experimental: (§1) In the following experiments, the concentration of thioflavin T was thirty micromolar in phosphate buffered saline (PBS), and the staining time was five minutes.
(§2) In the following experiments, an […] observer interpreted fluorescence. Interpretation of microscopic fluorescence intensity may be subject to bias. Staining times and washes were controlled.
A precipitate formed and the sample was centrifuged at 1500 rpm for five minutes. […] Then, five microliters of thioflavin T were added to each sample, and after five minutes, the samples were centrifuged at 1500 rpm for five minutes and washed twice with PBS. Aggregates in the micro centrifuge tubes were aspirated and observed under an epifluorescent microscope with B2 filter. (Table 3)

[4] = biological target: T3, β-2-microglobulin aggregates (Homo sapiens, UniProt P61769); assay: Citrate treatment of β-2-microglobulin aggregates (thioflavin T fluorescence microscopy); type: biochemical; details: 2 weeks, thioflavin T stain
T3 construct: purchased Lee Biosolutions, Maryland Heights, Mo
Experimental: as §1, §2
One milliliter of β-2-microglobulin (Lee Biosolutions, Maryland Heights, Mo.) at a concentration of 1 mg/0.5 ml were mixed with two milliliters of 10 mM calcium chloride in normal saline at 37° C. for three weeks, and a precipitate formed. […] The precipitate was aspirated and stained with 10 microliters of thioflavin T, washed twice with phosphate bufferd saline (PBS), and each sample was observed under an epifluorescent microscope with B2 filter (excitation filter, 450-490 nm; barrier filter, 520 nm). (Table 1)

alpha synuclein = alpha synuclein (Homo sapiens, UniProt P37840); details: 10 mM calcium chloride in PBS, 37° C., four weeks
Experimental: Five hundred micrograms of alpha synuclein (rPeptide, LLC, Athens, Ga.) was dissolved in 400 microliters of 10 mM calcium chloride in PBS and incubated at 37° C. for four weeks.

T3 sequence (P61769 21-119): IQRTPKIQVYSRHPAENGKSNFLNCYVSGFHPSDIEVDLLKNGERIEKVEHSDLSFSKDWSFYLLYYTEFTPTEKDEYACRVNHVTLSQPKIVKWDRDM
T2 sequence (P05067 672-711 limits assumed): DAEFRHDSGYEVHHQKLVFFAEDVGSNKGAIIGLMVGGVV
T1 sequence (P05067 672-711 limits assumed): as above

**Q.** With `O=C(O)CC(O)(CC(=O)O)C(=O)O` [Citrate] as the compound, how does the “Formation of amyloid-like aggregates” value (β-amyloid peptide(1-40)) read?
**A.** Its value is “inhibit formation of amyloid-like aggregates”.

**Q.** And the “Blood brain barrier crossing” value ([1]; in vivo)?
**A.** The value was “freely crosses the blood brain barrier”.

**Q.** What about the “Cerebral spinal fluid to plasma concentration of citrate” value ([1]; in vivo) of the same compound?
**A.** Its value is “approximately two-three to one”.

**Q.** And the “Average CSF concentration” value ([1]; normal volunteers)?
**A.** Its value is 0.18 mM.

**Q.** What about the “Average plasma citrate concentration” value ([1]; normal volunteers) of the same compound?
**A.** Its value is 0.09 mM.

**Q.** What about the CSF citrate concentration ([1]; patients with cerebrovascular disorders) of the same compound?
**A.** Its CSF citrate concentration is ≤ 0.3 mM.

**Q.** What about the “Protection of neurons from apoptotic effects of β-amyloid peptide(1-40)” value (neurons) of the same compound?
**A.** The value was “protect neurons from the apoptotic effects”.

**Q.** For `O=C([O-])CC(O)(CC(=O)[O-])C(=O)[O-].[Na+].[Na+].[Na+]` [Sodium citrate, sodium citrate], which “Effect on vertebral bone weight” value [2] is on record?
**A.** Its value is “decreased vertebral bone weight”.

**Q.** What about the “Effect on weight of ligamentum flavum, dura mater, and spinal cord” value [2] of the same compound?
**A.** Its value is “minimal effect”.

**Q.** And the “Thioflavin T fluorescence” value ([3]; sodium citrate 0.01 mM in PBS)?
**A.** The value was “Present”.

**Q.** And the “Thioflavin T fluorescence” value ([3]; sodium citrate 0.10 mM in PBS)?
**A.** The value was “Present”.

**Q.** What about the “Thioflavin T fluorescence” value ([3]; sodium citrate 1.00 mM in PBS) of the same compound?
**A.** The value was “Minimally present”.

**Q.** And the “Thioflavin T fluorescence” value ([3]; sodium citrate 10.00 mM in PBS)?
**A.** The value was “Absent”.

**Q.** What about the “Presence of fluorescent fibrils” value ([4]; sodium citrate 0.01 mM) of the same compound?
**A.** Its value is “Present”.

**Q.** What about the “Presence of fluorescent fibrils” value ([4]; sodium citrate 0.1 mM) of the same compound?
**A.** The value was “Present”.

**Q.** And the “Presence of fluorescent fibrils” value ([4]; sodium citrate 10 mM)?
**A.** Its value is “Absent”.

**Q.** What about the “Presence of fluorescent fibrils” value ([4]; sodium citrate 100 mM) of the same compound?
**A.** Its value is “Absent”.

**Q.** And the “Presence of fluorescent fibrils” value ([4]; sodium citrate 1M)?
**A.** The value was “Present”.

**Q.** With `[Ca+2].[Cl-].[Cl-]` [calcium chloride] as the compound, how does the Precipitate formation (alpha synuclein) read?
**A.** The Precipitate formation was “No precipitate formed”.

From US20180333379A1 (priority 2018, published 2018)
